Measured values published in patent US20040219104A1, “Methods for treatment of tumors” (priority 2003, published 2004).

Test system: JJ5 Breast Cancer cells
Test: Kinetics of binding, internalization and retention of radioactivity in JJ5 breast cancer cells
Type: cell-based, human
Conditions: 37° C.
Experimental: For the normal breast cell line HBL-100, 8000 EGFR/cell has been reported. The expression of EGFR in breast cancer cell lines has a reported range of 800 EGFR/cell for MCF-7 cells to […] for MDA-MB-468 cells. […] Utilizing the Auger electron emitter ^111In was used in the initial experiments to illustrate the utility of the invention using EGF-^111In-labeled transferrin conjugates. The EGF-^111In-labeled transferrin (0.25-80 ng) was incubated with 1.5×10^6 cells/dish JJ5 Breast Cancer (prepared from BCBM JJ5) cells in 1 mL of 0.1% human serum albumin in 35 mm multiwell culture dishes at 37° C. for 30 minutes. The cells were transferred to a centrifuge tube and centrifuged. The cell pellet was separated from the supernatant and counted in a g-scintillation counter to determine bound (B) and free (F) radioactivity. Non-specific binding was determined by conducting the assay in 100 nM hEGF. The kinetics of binding was determined by incubating 1 ng of EGF-^111In-labeled transferrin conjugate with 3×10^6 JJ5 Breast Cancer cells at 37° C. and determining the proportion of radioactivity bound to the cells at various times up to 24 hours. Internalized fraction was measured by determining the proportion of radioactivity which could not be displaced from the cell surface by 100 nM hEGF. […]

“EGF-^111In-labeled transferrin conjugate: conjugate containing human epidermal growth factor (EGF) linked (biotin/streptavidin linker) to 111In-radiolabeled human transferrin” was tested, and the “binding by the breast cancer cells (kinetics)” value was “rapidly bound”.
